The record followed here is ChEMBL document CHEMBL3351659, “Amine-linked diquercitols as new α-glucosidase inhibitors” (Bioorg Med Chem Lett, 2014).

A short description of experiment [1]: Inhibition of Baker's yeast alpha-glucosidase pre-incubated for 10 mins before para-nitrophenyl-alpha-D-glucopyranoside substrate addition. More on the design: species or system Saccharomyces cerevisiae.
The target of experiment [2] is Sucrase-isomaltase, intestinal (Rattus norvegicus, UniProt P23739). Nature of the experiment: Inhibition of rat intestinal sucrase using sucrose substrate incubated for 10 mins.
Experiment [3] in a line: Inhibition of rat intestinal maltase using maltose substrate incubated for 10 mins.
Experiment [4] can be described thus: Inhibition of alpha-glucosidase (unknown origin). On the set-up: species or system Homo sapiens.

SMILES strings stand for the structures.

Sucrase-isomaltase, intestinal, sequence (P23739 1-1013 limits assumed): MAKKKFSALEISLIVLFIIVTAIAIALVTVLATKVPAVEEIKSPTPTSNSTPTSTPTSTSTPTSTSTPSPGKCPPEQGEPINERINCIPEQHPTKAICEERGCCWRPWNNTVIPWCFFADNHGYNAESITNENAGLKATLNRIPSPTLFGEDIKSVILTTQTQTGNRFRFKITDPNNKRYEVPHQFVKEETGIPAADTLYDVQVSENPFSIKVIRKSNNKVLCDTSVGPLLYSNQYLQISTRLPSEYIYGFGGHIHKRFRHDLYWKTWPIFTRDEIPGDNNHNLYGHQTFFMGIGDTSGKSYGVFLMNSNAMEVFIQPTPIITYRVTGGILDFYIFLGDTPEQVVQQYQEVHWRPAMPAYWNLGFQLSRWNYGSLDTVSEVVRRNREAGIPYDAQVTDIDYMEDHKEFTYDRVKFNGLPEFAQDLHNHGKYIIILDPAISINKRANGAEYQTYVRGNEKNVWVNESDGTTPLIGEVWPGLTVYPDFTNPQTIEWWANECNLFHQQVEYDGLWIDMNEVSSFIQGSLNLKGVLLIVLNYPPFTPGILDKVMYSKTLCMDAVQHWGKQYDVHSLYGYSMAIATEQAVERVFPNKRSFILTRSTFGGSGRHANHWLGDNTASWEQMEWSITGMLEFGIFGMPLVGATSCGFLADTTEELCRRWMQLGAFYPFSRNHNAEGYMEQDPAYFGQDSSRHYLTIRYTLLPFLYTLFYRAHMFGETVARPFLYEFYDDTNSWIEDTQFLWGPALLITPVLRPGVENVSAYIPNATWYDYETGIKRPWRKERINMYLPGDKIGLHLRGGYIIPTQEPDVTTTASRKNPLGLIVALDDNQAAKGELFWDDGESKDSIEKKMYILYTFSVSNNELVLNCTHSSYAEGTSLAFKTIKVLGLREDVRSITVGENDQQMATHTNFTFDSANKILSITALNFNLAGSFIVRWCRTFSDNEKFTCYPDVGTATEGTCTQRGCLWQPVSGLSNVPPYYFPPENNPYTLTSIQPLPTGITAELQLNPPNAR
Sucrase-isomaltase, intestinal, sequence (P23739 1014-1841 limits assumed): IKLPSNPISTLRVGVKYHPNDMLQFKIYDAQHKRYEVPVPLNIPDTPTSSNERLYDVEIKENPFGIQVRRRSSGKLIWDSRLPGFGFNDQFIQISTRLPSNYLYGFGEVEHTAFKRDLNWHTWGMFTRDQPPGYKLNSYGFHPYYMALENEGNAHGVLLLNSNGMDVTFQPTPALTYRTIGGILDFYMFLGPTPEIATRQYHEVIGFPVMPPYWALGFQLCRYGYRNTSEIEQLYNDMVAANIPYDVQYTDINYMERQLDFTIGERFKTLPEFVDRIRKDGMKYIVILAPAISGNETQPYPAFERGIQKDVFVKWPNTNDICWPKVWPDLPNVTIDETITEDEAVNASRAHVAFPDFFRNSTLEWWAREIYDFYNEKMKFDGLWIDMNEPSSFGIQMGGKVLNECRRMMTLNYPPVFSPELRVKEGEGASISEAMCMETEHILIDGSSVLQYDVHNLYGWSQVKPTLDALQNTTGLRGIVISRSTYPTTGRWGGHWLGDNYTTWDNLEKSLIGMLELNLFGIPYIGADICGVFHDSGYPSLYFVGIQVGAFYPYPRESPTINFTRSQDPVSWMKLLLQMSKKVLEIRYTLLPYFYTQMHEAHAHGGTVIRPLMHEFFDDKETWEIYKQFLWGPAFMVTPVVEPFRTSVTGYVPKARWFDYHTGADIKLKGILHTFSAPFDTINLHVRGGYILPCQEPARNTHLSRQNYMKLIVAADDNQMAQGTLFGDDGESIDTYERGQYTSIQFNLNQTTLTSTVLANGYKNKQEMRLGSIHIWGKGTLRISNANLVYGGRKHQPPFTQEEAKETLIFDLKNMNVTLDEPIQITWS

As to `OC1CC(N[C@H]2C[C@@H](O)[C@H](O)[C@@H](O)[C@H]2O)[C@@H](O)[C@@H](O)[C@@H]1O` (single isomer, unassigned), the IC50 in experiment [1] worked out at 32.3 µM; in experiment [2] it was 3.7 µM; in experiment [3], 3.1 µM.

Compound `O[C@H]1[C@H](O)[C@@H](N[C@H]2C=C[C@@H](O)[C@@H](O)[C@@H]2O)C=C[C@H]1O` registered an IC50 in experiment [4] of 1400 µM.

`CC(=O)N([C@H]1[C@H](O)[C@H](O)[C@@H](O)[C@@H](O)[C@@H]1O)[C@H]1[C@H](O)[C@H](O)[C@@H](O)[C@@H](O)[C@@H]1O` had an IC50 in experiment [4] of 370 µM.

Take `CC(=O)N([C@H]1C=C[C@@H](O)[C@@H](O)[C@@H]1O)[C@H]1C=C[C@@H](O)[C@@H](O)[C@@H]1O`: in experiment [4], the IC50 was found to be 1350 µM.

For the compound `O[C@@H]1[C@@H](O)[C@H](O)C[C@H](N[C@H]2C[C@H](O)[C@@H](O)[C@H](O)[C@@H]2O)[C@@H]1O`, the IC50 in experiment [1] is 40.1 µM; in experiment [2], 4 µM; in experiment [3], 3.6 µM.

The compound `O[C@@H]1[C@@H](O)[C@@H](O)[C@H](N[C@H]2[C@H](O)[C@H](O)[C@@H](O)[C@@H](O)[C@@H]2O)[C@@H](O)[C@@H]1O` displayed an IC50 in experiment [4] of over 2000 µM.

In the case of `C[C@H]1O[C@H](O[C@H]2[C@H](O)[C@@H](O)[C@@H](O[C@H]3[C@H](O)[C@@H](O)C(O)O[C@@H]3CO)O[C@@H]2CO)[C@H](O)[C@@H](O)[C@@H]1N[C@H]1C=C(CO)[C@@H](O)[C@H](O)[C@H]1O` (some centres undefined) [ACARBOSE], the IC50 in experiment [1] worked out at 404 µM; in experiment [3], 1.5 µM.

As to `N[C@@H]1C[C@@H](O)[C@H](O)[C@@H](O)[C@H]1O`, the IC50 is 12.5 µM in experiment [1], 6.8 µM in experiment [2] and 4.4 µM in experiment [3].

Consider `N[C@H]1[C@H](O)[C@H](O)[C@@H](O)[C@@H](O)[C@@H]1N[C@H]1[C@H](O)[C@H](O)[C@@H](O)[C@@H](O)[C@@H]1O`, for which the IC50 in experiment [4] is over 2000 µM.

Regarding `N[C@H]1C[C@@H](O)[C@H](O)[C@@H](O)[C@H]1O`, the 50% inhibitory concentration (IC50) in experiment [1] was 2890 µM; in experiment [2], 7.3 µM; in experiment [3], 5.8 µM.
